{"source": "patent US9113629B2", "about": "“4-amino-6-(4-substituted-phenyl)-picolinates and 6-amino-2-(4-substituted-phenyl)-pyrimidine-4-carboxylates and their use as herbicides” (DOW AGROSCIENCES LLC, priority 2013, dated 2015)", "key": {"[1]": {"system": "Key Grass and Sedge Weeds as well as Grass Crops", "assay": "Post-emergent Test II herbicidal activity (Table 6)", "type": "in vivo", "settings": "post-emergence, 336 h; for pest or weed control at 70 g/ha: 70 g ai/ha; for pest or weed control at 140 g/ha: 140 g ai/ha", "procedure,_shortened": "(§1)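 Spray rates: a highest rate plus ½×, ¼×, ⅛×, 1/16×, all delivered at 187 L/ha to plants at the first–second true leaf stage. Readout is a visual percent injury score at 14 d, where 100 means complete kill.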"}, "[2]": {"system": "Key Broadleaf Weed and Crop Species", "assay": "Post-emergent Test II herbicidal activity (Table 5)", "type": "in vivo", "settings": "post-emergence, 336 h, 14 days after application; for pest or weed control at 70 g/ha: application rate 70 g ai/ha; for pest or weed control at 140 g/ha: application rate 140 g ai/ha", "procedure,_shortened": "as §1"}, "[3]": {"settings": "CYPES: yellow nutsedge (Cyperus esculentus), read-out: Visual Growth Reduction (%) 14 Days After Application, CYPES"}, "[4]": {"settings": "DIGSA: crabgrass (Digitaria sanguinalis), read-out: Visual Growth Reduction (%) 14 Days After Application, DIGSA"}, "[5]": {"settings": "ECHCG: barnyardgrass (Echinochloa crus-galli), read-out: Visual Growth Reduction (%) 14 Days After Application, ECHCG"}, "[6]": {"settings": "ORYSA: rice (Oryza sativa), crop, read-out: Visual Growth Reduction (%) 14 Days After Application, ORYSA"}, "[7]": {"settings": "SETFA: giant foxtail (Setaria faberi), read-out: Visual Growth Reduction (%) 14 Days After Application, SETFA"}, "[8]": {"settings": "SORVU: grain sorghum (Sorghum vulgare), read-out: Visual Growth Reduction (%) 14 Days After Application, SORVU"}, "[9]": {"settings": "TRZSS (wheat, Triticum aestivum), crop, read-out: Visual Growth Reduction (%) 14 Days After Application, TRZSS"}, "[10]": {"settings": "ZEAMX: maize, corn (Zea mays), crop, read-out: Visual Growth Reduction (%) 14 Days After Application, ZEAMX"}, "[11]": {"settings": "ABUTH: velvetleaf (Abutilon theophrasti), read-out: Visual Growth Reduction (%) 14 Days After Application, ABUTH"}, "[12]": {"settings": "BRSNN: oilseed-rape, canola (Brassica napus), read-out: Visual Growth Reduction (%) 14 Days After Application, BRSNN"}, "[13]": {"settings": "CHEAL: lambsquarters (Chenopodium album), read-out: Visual Growth Reduction (%) 14 Days After Application, CHEAL"}, "[14]": {"settings": "EPHHL: wild poinsettia (Euphorbia heterophylla), read-out: Visual Growth Reduction (%) 14 Days After Application, EPHHL"}, "[15]": {"settings": "HELAN: sunflower (Helianthus annuus), read-out: Visual Growth Reduction (%) 14 Days After Application, HELAN"}, "[16]": {"settings": "VIOTR: wild pansy (Viola tricolor), read-out: Visual Growth Reduction (%) 14 Days After Application, VIOTR"}}, "note": "Where two headings read alike, the source gives them in different places.", "data": [{"smiles": "C#Cc1ccc(-c2nc(C(=O)O)c(Cl)c(N)c2F)cc1", "note": "[Compound 62]", "values": [{"measurement": "pest or weed control at 70 g/ha", "setting": "[1]; [3]", "result": "95 to 100", "unit": "%"}, {"measurement": "pest or weed control at 140 g/ha", "setting": "[1]; [3]", "result": "95 to 100", "unit": "%"}, {"measurement": "pest or weed control at 70 g/ha", "setting": "[1]; [4]", "result": "85 to 94", "unit": "%"}, {"measurement": "pest or weed control at 140 g/ha", "setting": "[1]; [4]", "result": "85 to 94", "unit": "%"}, {"measurement": "pest or weed control at 70 g/ha", "setting": "[1]; [5]", "result": "95 to 100", "unit": "%"}, {"measurement": "pest or weed control at 140 g/ha", "setting": "[1]; [5]", "result": "95 to 100", "unit": "%"}, {"measurement": "pest or weed control at 70 g/ha", "setting": "[1]; [6]", "result": "0 to 29", "unit": "%"}, {"measurement": "pest or weed control at 140 g/ha", "setting": "[1]; [6]", "result": "0 to 29", "unit": "%"}, {"measurement": "pest or weed control at 70 g/ha", "setting": "[1]; [7]", "result": "95 to 100", "unit": "%"}, {"measurement": "pest or weed control at 140 g/ha", "setting": "[1]; [7]", "result": "95 to 100", "unit": "%"}, {"measurement": "pest or weed control at 70 g/ha", "setting": "[1]; [8]", "result": "75 to 84", "unit": "%"}, {"measurement": "pest or weed control at 140 g/ha", "setting": "[1]; [8]", "result": "75 to 84", "unit": "%"}, {"measurement": "pest or weed control at 70 g/ha", "setting": "[1]; [9]", "result": "45 to 59", "unit": "%"}, {"measurement": "pest or weed control at 140 g/ha", "setting": "[1]; [9]", "result": "45 to 59", "unit": "%"}, {"measurement": "pest or weed control at 70 g/ha", "setting": "[1]; [10]", "result": "75 to 84", "unit": "%"}, {"measurement": "pest or weed control at 140 g/ha", "setting": "[1]; [10]", "result": "85 to 94", "unit": "%"}, {"measurement": "pest or weed control at 70 g/ha", "setting": "[2]; [11]", "result": "75 to 84", "unit": "%"}, {"measurement": "pest or weed control at 140 g/ha", "setting": "[2]; [11]", "result": "75 to 84", "unit": "%"}, {"measurement": "pest or weed control at 70 g/ha", "setting": "[2]; AMARE: redroot pigweed (Amaranthus retroflexus), read-out: Visual Growth Reduction (%) 14 Days After Application, AMARE", "result": "95 to 100", "unit": "%"}, {"measurement": "pest or weed control at 70 g/ha", "setting": "[2]; [12]", "result": "95 to 100", "unit": "%"}, {"measurement": "pest or weed control at 140 g/ha", "setting": "[2]; [12]", "result": "95 to 100", "unit": "%"}, {"measurement": "pest or weed control at 70 g/ha", "setting": "[2]; [13]", "result": "85 to 94", "unit": "%"}, {"measurement": "pest or weed control at 140 g/ha", "setting": "[2]; [13]", "result": "85 to 94", "unit": "%"}, {"measurement": "pest or weed control at 70 g/ha", "setting": "[2]; [14]", "result": "95 to 100", "unit": "%"}, {"measurement": "pest or weed control at 140 g/ha", "setting": "[2]; [14]", "result": "95 to 100", "unit": "%"}, {"measurement": "pest or weed control at 70 g/ha", "setting": "[2]; [15]", "result": "85 to 94", "unit": "%"}, {"measurement": "pest or weed control at 140 g/ha", "setting": "[2]; [15]", "result": "95 to 100", "unit": "%"}, {"measurement": "pest or weed control at 70 g/ha", "setting": "[2]; [16]", "result": "0 to 29", "unit": "%"}, {"measurement": "pest or weed control at 140 g/ha", "setting": "[2]; [16]", "result": "0 to 29", "unit": "%"}, {"measurement": "melting point", "result": "142 to 147 °C (dec.)"}]}]}
